Measured values published in US20130072385A1, “METHODS FOR DELAYING BUD BREAK BY APPLYING ABA ANALOGS” (priority 2011, published 2013).

Tested on: Canadice grapevines
Test: Soil drench of potted grapevines near the time of bud break, Canadice
Assay type: in vivo
Protocol: A study was conducted to determine the effect of ABA applied to the soil of potted grapevines near the time of bud break. Eco-dormant bare-root Seyval Blanc and Canadice grapevines were purchased from Concord Nurseries, North Collins, N.Y. Vines were planted in pots of Promix potting mixture and held in a 5° C. dark chamber prior to treatment. Plants were moved from the 5° C. chamber to a greenhouse set to 20° C. night/25° C. day with a 12 hour light and 12 hour dark light cycle to promote bud break. One group of 5 plants was treated with 250 ml of 1000 ppm ABA (250 mg) as a soil drench 2 days after moving the vines to warm conditions. Another group of vines was treated 6 days after warming and another group of 5 plants was treated 10 days after warming. With the Seyval Blanc grapevines one group of 5 plants was treated at all 3 timings 2, 6, and 10 days after warming (750 mg total). Another group of 5 vines was not treated and acted as an untreated control. […]

Q: Which results are given for “(S)-5-(1-hydroxy-2,6,6)-trimethyl-4-oxo-2-cyclohexen-1-yl)-3-methyl-(2 Z,4E)-pentadienoic acid [ABA]”?
A: Average number of broken buds per vine (1000 ppm soil drench 2 days after warming, evaluated 13 days after warming): 0; Average number of broken buds per vine (1000 ppm soil drench 2 days after warming, evaluated 14 days after warming): 0; Average number of broken buds per vine (1000 ppm soil drench 2 days after warming, evaluated 15 days after warming): 0.8; Average number of broken buds per vine (1000 ppm soil drench 2 days after warming, evaluated 16 days after warming): 1.2; Average number of broken buds per vine (1000 ppm soil drench 2 days after warming, evaluated 17 days after warming): 1.7; Average number of broken buds per vine (1000 ppm soil drench 2 days after warming, evaluated 18 days after warming): 1.7; Average number of broken buds per vine (1000 ppm soil drench 6 days after warming, evaluated 13 days after warming): 0.2; Average number of broken buds per vine (1000 ppm soil drench 6 days after warming, evaluated 14 days after warming): 0.7; Average number of broken buds per vine (1000 ppm soil drench 6 days after warming, evaluated 15 days after warming): 1.2; Average number of broken buds per vine (1000 ppm soil drench 6 days after warming, evaluated 16 days after warming): 1.7; Average number of broken buds per vine (1000 ppm soil drench 6 days after warming, evaluated 17 days after warming): 2.3; Average number of broken buds per vine (1000 ppm soil drench 6 days after warming, evaluated 18 days after warming): 2.5; Average number of broken buds per vine (1000 ppm soil drench 10 days after warming, evaluated 13 days after warming): 0.5; Average number of broken buds per vine (1000 ppm soil drench 10 days after warming, evaluated 14 days after warming): 1.8; Average number of broken buds per vine (1000 ppm soil drench 10 days after warming, evaluated 15 days after warming): 2.3; Average number of broken buds per vine (1000 ppm soil drench 10 days after warming, evaluated 16 days after warming): 2.3; Average number of broken buds per vine (1000 ppm soil drench 10 days after warming, evaluated 17 days after warming): 2.3; Average number of broken buds per vine (1000 ppm soil drench 10 days after warming, evaluated 18 days after warming): 2.7
